Reference: ChEMBL document CHEMBL5244260, “Aldose reductase and protein tyrosine phosphatase 1B inhibitors as a promising therapeutic approach for diabetes mellitus” (Eur J Med Chem, 2020)

Assays:
Homo sapiens [1] = species on record: Homo sapiens; assay: Selectivity ratio of Ki for human PTP1B expressed in Escherichia coli BL21 (DE3) to Ki for CD45 (unknown origin)
Homo sapiens [2] = species on record: Homo sapiens; assay: Selectivity ratio of Ki for human PTP1B expressed in Escherichia coli BL21 (DE3) to Ki for Calcineurin (unknown origin)
Homo sapiens [3] = species on record: Homo sapiens; assay: Selectivity ratio of Ki for human PTP1B expressed in Escherichia coli BL21 (DE3) to Ki for TCPTP (unknown origin)
Homo sapiens [4] = species on record: Homo sapiens; assay: Selectivity ratio of Ki for human PTP1B expressed in Escherichia coli BL21 (DE3) to Ki for SHP-2 (unknown origin)
Homo sapiens [5] = species on record: Homo sapiens; assay: Selectivity ratio of Ki for human PTP1B expressed in Escherichia coli BL21 (DE3) to Ki for LAR (unknown origin)
[6] = Inhibition of ALR2 in Sprague-Dawley rat lens using D,L-glyceraldehyde as substrate preincubated for 10 mins in presence of NADPH followed by substrate addition and measured after 5 mins by spectrophotometric assay; assay type: tissue-based
[7] = biological target: T1, Tyrosine-protein phosphatase non-receptor type 1 (Homo sapiens, UniProt P18031); assay: Inhibition of PTP1B (unknown origin) assessed as inhibition constant using pNPP as substrate
T1 sequence (P18031 whole entry): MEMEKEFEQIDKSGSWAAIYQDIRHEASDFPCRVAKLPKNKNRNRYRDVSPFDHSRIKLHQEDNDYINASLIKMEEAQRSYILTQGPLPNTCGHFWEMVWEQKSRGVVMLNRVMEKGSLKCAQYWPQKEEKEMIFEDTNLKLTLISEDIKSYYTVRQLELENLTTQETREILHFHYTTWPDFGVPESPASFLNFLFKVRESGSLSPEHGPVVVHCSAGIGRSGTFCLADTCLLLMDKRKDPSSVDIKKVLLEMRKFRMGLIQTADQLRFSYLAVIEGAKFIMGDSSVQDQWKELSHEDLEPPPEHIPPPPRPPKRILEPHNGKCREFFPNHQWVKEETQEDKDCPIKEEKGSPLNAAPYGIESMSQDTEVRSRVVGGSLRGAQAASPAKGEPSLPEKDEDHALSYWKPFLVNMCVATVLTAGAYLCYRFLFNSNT

[8] = biological target: T2, Aldo-keto reductase family 1 member B1 (Rattus norvegicus, UniProt P07943); assay: Inhibition of Aldose reductase in rat lens using D,L-glyceraldehyde as substrate in presence of NADPH by spectrophotometric assay; assay type: tissue-based
[9] = Inhibition of ALR2 in Wistar rat lens using D,L-glyceraldehyde as substrate preincubated for 10 mins in presence of NADPH followed by substrate addition and measured after 5 mins by spectrophotometric assay; assay type: tissue-based
[10] = biological target: Aldo-keto reductase family 1 member B1 (Sus scrofa, UniProt P80276); assay: Inhibition of ALR2 in pig lens using D,L-glyceraldehyde as substrate preincubated for 4 mins in presence of NADPH followed by substrate addition and measured after 4 mins by spectrophotometric assay; assay type: tissue-based
[11] = biological target: T2, Aldo-keto reductase family 1 member B1; assay: Inhibition of recombinant Aldose reductase in rat lens using D,L-glyceraldehyde as substrate in presence of NADPH measured after 4 mins by spectrophotometric assay; assay type: tissue-based
[12] = Inhibition of human recombinant ALR1 expressed in Escherichia coli by Coomassie reagent assay
[13] = biological target: T2, Aldo-keto reductase family 1 member B1; assay: Inhibition of ALR in Fischer-344 rat lens using D,L-glyceraldehyde as substrate in presence of NADPH measured after 3 mins by spectrophotometric assay; assay type: tissue-based
[14] = Inhibition of ALR2 in Wistar rat using D,L-glyceraldehyde as substrate preincubated for 10 mins in presence of NADPH followed by substrate addition and measured after 4 mins by spectrophotometric assay
[15] = biological target: T1, Tyrosine-protein phosphatase non-receptor type 1; assay: Inhibition of PTP1B (1 to 321 residues) (unknown origin) expressed in Escherichia coli BL21 assessed as inhibition constant using pNPP as substrate incubated for 60 min by Michaelis-Menten analysis
Homo sapiens [16] = species on record: Homo sapiens; assay: Selectivity ratio of IC50 for human PTP1B (1 to 298 residues) expressed in Escherichia coli BL21 (DE3) to IC50 for TCPTP (unknown origin)
[17] = biological target: T1, Tyrosine-protein phosphatase non-receptor type 1; assay: Inhibition of human PTP1B (1 to 298 residues) expressed in Escherichia coli using FDP as substrate by microplate reader
[18] = biological target: T1, Tyrosine-protein phosphatase non-receptor type 1; assay: Inhibition of human PTP1B using pNPP as substrate incubated for 30 min
[19] = Inhibition of ALR2 in rat lens using D,L-glyceraldehyde as substrate preincubated for 10 mins in presence of NADPH followed by substrate addition and measured after 20 mins by spectrophotometric assay; assay type: tissue-based
Homo sapiens [20] = species on record: Homo sapiens; assay: Selectivity ratio of IC50 for PTP1B (unknown origin) to IC50 for YOP (unknown origin)
Homo sapiens [21] = species on record: Homo sapiens; assay: Selectivity ratio of IC50 for PTP1B (unknown origin) to IC50 for TCPTP (unknown origin)
[22] = biological target: T1, Tyrosine-protein phosphatase non-receptor type 1; assay: Inhibition of PTP1B (unknown origin) using flurogenic substrate by fluorescence plate reader assay
Homo sapiens [23] = species on record: Homo sapiens; assay: Selectivity ratio of IC50 for PTP1B (unknown origin) to IC50 for PP1 (unknown origin)
Homo sapiens [24] = species on record: Homo sapiens; assay: Selectivity ratio of IC50 for PTP1B (unknown origin) to IC50 for LAR (unknown origin)
Homo sapiens [25] = species on record: Homo sapiens; assay: Selectivity ratio of IC50 for PTP1B (unknown origin) to IC50 for Protein phosphatase-lambda (unknown origin)
Homo sapiens [26] = species on record: Homo sapiens; assay: Selectivity ratio of Ki for PTP1B (unknown origin) to Ki for LAR (unknown origin)
Homo sapiens [27] = species on record: Homo sapiens; assay: Selectivity ratio of Ki for PTP1B (unknown origin) to Ki for PTPalpha (unknown origin)

SMILES: CC(=O)N[C@@H](Cc1ccc(N(C(=O)C(=O)O)c2ccccc2C(=O)O)c2ccccc12)C(=O)NCCCCCOc1cc2ccccc2cc1C(=O)O
- Ratio Ki (Homo sapiens [1]): 2700
- Ratio Ki (Homo sapiens [2]): > 13000
- Ratio Ki (Homo sapiens [3]): 2
- Ratio Ki (Homo sapiens [4]): 104
- Ratio Ki (Homo sapiens [5]): 36

SMILES: O=C(O)Cn1c2ccccc2n2c(=O)c(=O)n(Cc3ccccc3)nc12
- IC50 [6]: 360 nM

SMILES: CCCCCNC(=O)[C@H](Cc1ccc(OC(C(=O)O)C(=O)O)cc1)NC(=O)[C@H](Cc1ccccc1)NC(=O)CCC(=O)O
- Ki [7]: 1200 nM

SMILES: CC(C)NC(=O)NS(=O)(=O)c1ccc(-n2nc(-c3ccc(F)cc3)ccc2=O)cc1
- IC50 [8]: 45000 nM

SMILES: O=C(O)CC1=CN(/C=C/c2ccc(O)c(O)c2)S(=O)(=O)c2ccccc21
- IC50 [9]: 126 nM

SMILES: O=C(O)CCCCCN1N=C2c3ccsc3CCC2CC1=O (stereo not drawn)
- IC50 [10]: 7600 nM

SMILES: O=C1CC2(C(=O)N1)c1ccc(O)cc1C=Cc1cc(O)ccc12
- IC50 [11]: 3000 nM

SMILES: O=C(O)COc1cc(F)ccc1C(=S)NCc1cccc([N+](=O)[O-])c1
- IC50 [12]: 35000 nM

SMILES: O=C(O)Cn1cc(-c2nc3ccccc3s2)cc1C(=O)c1ccccc1
- IC50 [13]: 45 nM

SMILES: O=C(O)Cn1c(=O)c(Cc2ccc(Br)cc2F)nc2ccc(F)cc21
- IC50 [14]: 6.44 nM

SMILES: O=C(O)C(=O)Nc1sc2c(c1C(=O)O)COC(COC1=NS(=O)(=O)c3ccccc31)C2 (stereo not drawn)
- Ki [15]: 600 nM

SMILES: COC(CC(C)C)c1ccc2ccc(CC(Cc3ccc(C(F)(F)P(=O)(O)O)cc3)(c3ccccc3)n3nnc4ccccc43)c(P(=O)(O)O)c2n1 (stereo not drawn)
- Ratio IC50 (Homo sapiens [16]): 7.2
- IC50 [17]: 5 nM

SMILES: CCCCCCS(=O)(=O)NC(=O)c1ccc(CSCc2ccc(-c3ccccc3)cc2)cc1
- IC50 [18]: 280 nM

SMILES: O=C(O)CC1=CN(/C=C/c2ccc(O)cc2)S(=O)(=O)c2ccccc21
- IC50 [9]: 94 nM

SMILES: Cc1ccc(C(=O)/C(=C/c2ccc(O)c(O)c2)C(=O)O)cc1
- IC50 [19]: 490 nM

SMILES: COC(=O)C(O)c1ccc(NC(=O)CCCCn2cc(COc3ccc(-c4cc(C(=O)O)no4)cc3)nn2)cc1 (stereo not drawn)
- Ratio IC50 (Homo sapiens [20]): 10
- Ratio IC50 (Homo sapiens [21]): 10
- IC50 [22]: 4700 nM
- Ratio IC50 (Homo sapiens [23]): 10
- Ratio IC50 (Homo sapiens [24]): 10
- Ratio IC50 (Homo sapiens [25]): 10

SMILES: O=C(O)COc1ccc(-c2cc(NC(=O)C(=O)O)c(C(=O)O)s2)cc1
- Ratio Ki (Homo sapiens [26]): 20
- Ratio Ki (Homo sapiens [27]): 20
